Experimental data published in patent publication US9789086B1, “N-(5-arylamido-2-methylphenyl)-5-methylisooxazole-4-carboxamide deravative, pharmaceutical acceptable salt thereof, method for preparation therof and FMS kinase inhibitor comprising the same as anactive ingredient” (Industry-University Cooperation Foundation Hanyang …, priority 2014, dated 2017).

Legend:
A375P cell line = A375P cell line proliferation inhibitory activity (MTT assay); type: cell-based; settings: A375P cells, 48 hours treatment
Experimental: A375P cell lines were purchased from ATCC and cultured in a DMEM culture medium (containing 10% FBS and 1% penicillin/streptomycin) in the presence of 5% CO2 at 37° C. The cultured A375P cell lines were taken from culture substrate with 0.05% trypsin-0.02% EDTA and plated at a density of 5×10^3 cells per well in 96-well plates.
(§1) In order to measure cell viability, MTT [3-(4,5-dimethylthiazole-2-yl)-2,5-diphenyltetrazolium bromide] activity assay method (Thiazolyl Blue Tetrazolium Bromide, Sigma Aldrich) was used. Cell lines were cultured in 96-well plates for 24 hours and treated with the compounds of Examples previously prepared. For the compound treatment, 10 mM stocks were prepared, serially diluted in DMSO and added by 0.5 μL at 8 points (final concentration of 0.5%). The cell lines in plates treated with the compounds was cultured for 48 hours, then 15 μL of dye was added to each well and cultured for 4 hours. Then, 100 μL of DMSO solvent was added to each well, and the formed solid was dissolved to measure the absorbance. The absorbance was read at a wavelength of 570 nm using EnVision 2103, and the GI 50 value was calculated using GraphPad Prism 4.0 software, and the results are shown in Table 1 below.

U937 cell line = U937 cell line proliferation inhibitory activity (MTT assay); type: cell-based; settings: Homo sapiens, U-937, U937 cells
Experimental: as §1
U937 cell lines were purchased from ATCC and cultured in a RPMI culture medium (containing 10% FBS, 1% penicillin/streptomycin and 25 mM HEPES) in the presence of 5% CO2 at 37° C. The cell line proliferation inhibitory activity for Examples previously prepared was measured using the same MTT activity assay method as the A375P cell line proliferation inhibitory activity assay in Experimental Example 1.

FMS = target: T1, FMS (Homo sapiens, UniProt P07333); assay: FMS inhibitory activity (Reaction Biology Kinase profiling, IC50 profiler express); type: biochemical
T1 construct: purchased Reaction Biology Corporation
Experimental: The inhibitory activity of FMS at a concentration of 10 μM of the compound prepared in Example 5 was measured using Kinase profiling services (IC 50 profiler express) offered by Reaction Biology Corporation.

T1 sequence (P07333 20-972): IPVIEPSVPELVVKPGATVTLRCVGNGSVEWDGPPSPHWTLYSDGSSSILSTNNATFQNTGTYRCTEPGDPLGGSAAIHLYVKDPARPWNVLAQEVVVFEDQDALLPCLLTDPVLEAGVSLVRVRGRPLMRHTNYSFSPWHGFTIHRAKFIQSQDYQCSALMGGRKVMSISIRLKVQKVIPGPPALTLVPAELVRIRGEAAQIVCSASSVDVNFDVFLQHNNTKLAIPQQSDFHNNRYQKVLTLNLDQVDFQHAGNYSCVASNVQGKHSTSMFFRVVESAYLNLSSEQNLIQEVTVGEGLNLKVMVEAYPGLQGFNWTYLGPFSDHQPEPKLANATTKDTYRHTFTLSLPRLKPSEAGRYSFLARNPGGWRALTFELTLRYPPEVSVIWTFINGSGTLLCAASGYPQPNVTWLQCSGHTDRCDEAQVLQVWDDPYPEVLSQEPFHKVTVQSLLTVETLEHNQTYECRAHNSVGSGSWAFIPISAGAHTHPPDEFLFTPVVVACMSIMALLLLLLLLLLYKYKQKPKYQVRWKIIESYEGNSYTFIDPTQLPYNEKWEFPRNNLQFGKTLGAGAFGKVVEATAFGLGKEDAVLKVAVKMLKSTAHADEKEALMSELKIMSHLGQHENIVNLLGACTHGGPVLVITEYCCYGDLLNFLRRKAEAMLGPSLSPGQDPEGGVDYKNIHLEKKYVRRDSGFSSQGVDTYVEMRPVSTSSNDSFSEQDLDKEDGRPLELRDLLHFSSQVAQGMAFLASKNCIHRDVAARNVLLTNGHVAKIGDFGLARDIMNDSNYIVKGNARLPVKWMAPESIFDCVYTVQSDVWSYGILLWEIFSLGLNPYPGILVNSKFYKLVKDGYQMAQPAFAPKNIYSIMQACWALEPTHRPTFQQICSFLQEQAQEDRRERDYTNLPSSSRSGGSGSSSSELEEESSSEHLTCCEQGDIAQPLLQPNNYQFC

GI50 (A375P cell line) [µM] | GI50 (U937 cell line) [µM] | inhibition at 10 µM (FMS; compound concentration 10 μM, read-out: FMS activity inhibited) [%] | IC50 (FMS; sequentially decreasing concentration, read-out: concentration that inhibits FMS activity by 50% (IC50)) [nM] | Compound
10 to 30 | < 1 | – | – | Cc1ccc(NC(=O)c2cc(N3CCOCC3)cc(C(F)(F)F)c2)cc1NC(=O)c1cnoc1C [Example 44, 5-methyl-N-(2-methyl-5-(3-morpholino-5-(trifluoromethyl)benzamido)phenyl)isoxazole-4-carboxamide]
10 to 30 | 10 to 30 | – | – | CCCS(=O)(=O)Nc1ccc(NC(=O)c2cnoc2C)c(C)c1 [Example 43, 5-methyl-N-(2-methyl-4-(propylsulfonamido)phenyl)isoxazole-4-carboxamide]
10 to 30 | 10 to 30 | – | – | Cc1ccc(NC(=O)Nc2ccc(Cl)cc2)cc1NC(=O)c1cnoc1C [Example 28, N-(5-(3-(4-chlorophenyl)ureido)-2-methylphenyl)-5-methylisoxazole-4-carboxamide]
10 to 30 | 10 to 30 | – | – | Cc1ccc(NC(=O)Nc2cccc(C(F)(F)F)c2)cc1NC(=O)c1cnoc1C [Example 29, 5-methyl-N-(2-methyl-5-(3-(3-(trifluoromethyl)phenyl)ureido)phenyl)isoxazole-4-carboxamide]
10 to 30 | 10 to 30 | – | – | Cc1ccc(NC(=O)Nc2ccccc2F)cc1NC(=O)c1cnoc1C [Example 31, N-(5-(3-(2-fluorophenyl)ureido)-2-methylphenyl)-5-methylisoxazole-4-carboxamide]
10 to 30 | 10 to 30 | – | – | Cc1cc(NC(=O)Nc2ccc(Cl)c(C(F)(F)F)c2)ccc1NC(=O)c1cnoc1C [Example 35, N-(4-(3-(4-chloro-3-(trifluoromethyl)phenyl)ureido)-2-methylphenyl)-5-methylisoxazole-4-carboxamide]
10 to 30 | 10 to 30 | – | – | Cc1cc(NC(=O)Nc2cc(Cl)cc(Cl)c2)ccc1NC(=O)c1cnoc1C [Example 41, N-(4-(3-(3,5-dichlorophenyl)ureido)-2-methylphenyl)-5-methylisoxazole-4-carboxamide]
10 to 30 | 10 to 30 | – | – | Cc1ccc(NC(=O)Nc2cccc(Cl)c2)cc1NC(=O)c1cnoc1C [Example 32, N-(5-(3-(3-chlorophenyl)ureido)-2-methylphenyl)-5-methylisoxazole-4-carboxamide]
10 to 30 | 10 to 30 | – | – | Cc1cc(NC(=O)Nc2cccc(C(F)(F)F)c2)ccc1NC(=O)c1cnoc1C [Example 36, 5-methyl-N-(2-methyl-4-(3-(3-(trifluoromethyl)phenyl)ureido)phenyl)isoxazole-4-carboxamide]
10 to 30 | 10 to 30 | – | – | Cc1ccc(NC(=O)Nc2ccc(Cl)c(C(F)(F)F)c2)cc1NC(=O)c1cnoc1C [Example 30, N-(5-(3-(4-chloro-3-(trifluoromethyl)phenyl)ureido)-2-methylphenyl)-5-methylisoxazole-4-carboxamide]
10 to 30 | 10 to 30 | – | – | Cc1cc(NC(=O)Nc2ccc(Cl)cc2)ccc1NC(=O)c1cnoc1C [Example 39, N-(4-(3-(4-chlorophenyl)ureido)-2-methylphenyl)-5-methylisoxazole-4-carboxamide]
1 to 10 | 10 to 30 | – | – | Cc1cc(NC(=O)Nc2ccc(Cl)c(Cl)c2)ccc1NC(=O)c1cnoc1C [Example 40, N-(4-(3-(3,4-dichlorophenyl)ureido)-2-methylphenyl)-5-methylisoxazole-4-carboxamide]
10 to 30 | 10 to 30 | – | – | Cc1cc(NC(=O)Nc2ccccc2F)ccc1NC(=O)c1cnoc1C [Example 38, N-(4-(3-(2-fluorophenyl)ureido)-2-methylphenyl)-5-methylisoxazole-4-carboxamide]

More lines, now with the values behind:

Compound | GI50 (A375P cell line) [µM] | GI50 (U937 cell line) [µM] | inhibition at 10 µM (FMS; compound concentration 10 μM, read-out: FMS activity inhibited) [%] | IC50 (FMS; sequentially decreasing concentration, read-out: concentration that inhibits FMS activity by 50% (IC50)) [nM]
Cc1ccc(NC(=O)c2ccc(Cl)c(C(F)(F)F)c2)cc1NC(=O)c1cnoc1C [Example 5, N-(5-(4-chloro-3-(trifluoromethyl)benzamido)-2-methylphenyl)-5-methylisoxazole-4-carboxamide] | 10 to 30 | 10 to 30 | 98.7 | 9.95
Cc1ccc(NC(=O)c2cnc3ccccc3c2)cc1NC(=O)c1cnoc1C [Example 27, 5-methyl-N-(2-methyl-5-(quinoline-3-carboxamido)phenyl)isoxazole-4-carboxamide] | 10 to 30 | 10 to 30 | – | –
Cc1ccc(NC(=O)c2cc(-n3ccnc3C)cc(C(F)(F)F)c2)cc1NC(=O)c1cnoc1C [Example 9, 5-methyl-N-(2-methyl-5-(3-(2-methyl-1H-imidazol-1-yl)-5-(trifluoromethyl)benzamido)phenyl)isoxazole-4-carboxamide] | 10 to 30 | < 1 | – | –
Cc1ccc(NC(=O)Cc2ccccc2F)cc1NC(=O)c1cnoc1C [Example 8, N-(5-(2-(2-fluorophenyl)acetamido)-2-methylphenyl)-5-methylisoxazole-4-carboxamide] | 10 to 30 | 10 to 30 | – | –
Cc1ccc(NC(=O)c2ccccc2Sc2ccccc2C#N)cc1NC(=O)c1cnoc1C [Example 21, N-(5-(2-(2-cyanophenylthio)benzamido)-2-methylphenyl)-5-methylisoxazole-4-carboxamide] | 10 to 30 | 10 to 30 | – | –
Cc1ccc(NC(=O)c2ccncc2)cc1NC(=O)c1cnoc1C [Example 20, N-(5-(isonicotinamido)-2-methylphenyl)-5-methylisoxazole-4-carboxamide] | 10 to 30 | 10 to 30 | – | –
Cc1ccc(NC(=O)c2cc(N3CCN(C)CC3)cc(C(F)(F)F)c2)cc1NC(=O)c1cnoc1C [Example 3, 5-methyl-N-(2-methyl-5-(3-(4-methylpiperazin-1-yl)-5-(trifluoromethyl)benzamido)phenyl)isoxazole-4-carboxamide] | 10 to 30 | < 1 | – | –
Cc1ccc(NC(=O)c2cnn(-c3ccccc3)c2C(F)(F)F)cc1NC(=O)c1cnoc1C [Example 23, 5-methyl-N-(2-methyl-5-(1-phenyl-5-(trifluoromethyl)-1H-pyrazole-4-carboxamido)phenyl)isoxazole-4-carboxamide] | 10 to 30 | < 1 | – | –
Cc1ccc(NC(=O)c2ccc3[nH]nnc3c2)cc1NC(=O)c1cnoc1C [Example 18, N-(5-(1H-benzo[d][1,2,3]triazole-5-carboxamido)-2-methylphenyl)-5-methylisoxazole-4-carboxamide] | 10 to 30 | 10 to 30 | – | –
Cc1ccc(NC(=O)c2ccccc2-c2ccccc2)cc1NC(=O)c1cnoc1C [Example 25, N-(5-biphenyl-2-ylcarboxamido-2-methylphenyl)-5-methylisoxazole-4-carboxamide] | 10 to 30 | 10 to 30 | – | –
Cc1ccc(NC(=O)C(c2ccc(Cl)cc2)c2ccc(Cl)cc2)cc1NC(=O)c1cnoc1C [Example 13, N-(5-(2,2-bis(4-chlorophenyl)acetamido)-2-methylphenyl)-5-methylisoxazole-4-carboxamide] | 10 to 30 | 10 to 30 | – | –
Cc1cc(NC(=O)c2ccc(N3CCOCC3)c(C(F)(F)F)c2)ccc1NC(=O)c1cnoc1C [Example 1, 5-methyl-N-(2-methyl-4-(4-morpholino-3-(trifluoromethyl)benzamido)phenyl)isoxazole-4-carboxamide] | 10 to 30 | 10 to 30 | – | –
Cc1ccc(NC(=O)c2ccc(-c3ccccc3)cc2)cc1NC(=O)c1cnoc1C [Example 26, N-(5-biphenyl-4-ylcarboxamido-2-methylphenyl)-5-methylisoxazole-4-carboxamide] | 10 to 30 | 10 to 30 | – | –
Cc1ccc(NC(=O)c2cccc(Cl)c2)cc1NC(=O)c1cnoc1C [Example 6, N-(5-(3-chlorobenzamido)-2-methylphenyl)-5-methylisoxazole-4-carboxamide] | 10 to 30 | 10 to 30 | – | –
Cc1ccc(NC(=O)c2ccc(N3CCOCC3)c(C(F)(F)F)c2)cc1NC(=O)c1cnoc1C [Example 4, 5-methyl-N-(2-methyl-5-(4-morpholino-3-(trifluoromethyl)benzamido)phenyl)isoxazole-4-carboxamide] | 10 to 30 | < 1 | – | –
Cc1ccc(NC(=O)c2ccc3ccccc3n2)cc1NC(=O)c1cnoc1C [Example 12, 5-methyl-N-(2-methyl-5-(quinoline-2-carboxamido)phenyl)isoxazole-4-carboxamide] | 10 to 30 | 10 to 30 | – | –
Cc1cn(-c2cc(C(=O)Nc3ccc(C)c(NC(=O)c4cnoc4C)c3)cc(C(F)(F)F)c2)cn1 [Example 11, 5-methyl-N-(2-methyl-5-(3-(4-methyl-1H-imidazol-1-yl)-5-(trifluoromethyl)benzamido)phenyl)isoxazole-4-carboxamide] | 10 to 30 | < 1 | – | –
